A short description of data set [1]: Oral bioavailability in rat at 1 mg/kg. It counts as ADME, organism-based. To be noted: in vivo.
A short description of another data set: in vivo. The conditions noted are these: rat, brain / blood.
In data set [2] the test system is Rattus norvegicus. Briefly: Antihyperalgesic activity against chronic constriction nerve injury-induced hyperalgesia in rat assessed as reversal of decrease in the paw withdrawal threshold at 5 mg/kg, po bid for 10 days measured on day 3 postdose. It is filed as functional, organism-based. The arrangement: dose 5 mg/kg.
Data set [3] is described as follows: Volume of distribution at steady state in rat at 1 mg/kg/hr, iv. It counts as ADME, organism-based. To be noted: in vivo, read-out: Vdss. Also on record: route intravenous.
Data set [4] is described as follows: Blood clearance in rat at 1 mg/kg/hr, iv. It is filed as ADME, organism-based. The arrangement: route intravenous. To be noted: whole blood.
For data set [5], the target named is T1, Prostaglandin G/H synthase 2 (Homo sapiens, UniProt P35354).
T1 sequence (P35354 whole entry): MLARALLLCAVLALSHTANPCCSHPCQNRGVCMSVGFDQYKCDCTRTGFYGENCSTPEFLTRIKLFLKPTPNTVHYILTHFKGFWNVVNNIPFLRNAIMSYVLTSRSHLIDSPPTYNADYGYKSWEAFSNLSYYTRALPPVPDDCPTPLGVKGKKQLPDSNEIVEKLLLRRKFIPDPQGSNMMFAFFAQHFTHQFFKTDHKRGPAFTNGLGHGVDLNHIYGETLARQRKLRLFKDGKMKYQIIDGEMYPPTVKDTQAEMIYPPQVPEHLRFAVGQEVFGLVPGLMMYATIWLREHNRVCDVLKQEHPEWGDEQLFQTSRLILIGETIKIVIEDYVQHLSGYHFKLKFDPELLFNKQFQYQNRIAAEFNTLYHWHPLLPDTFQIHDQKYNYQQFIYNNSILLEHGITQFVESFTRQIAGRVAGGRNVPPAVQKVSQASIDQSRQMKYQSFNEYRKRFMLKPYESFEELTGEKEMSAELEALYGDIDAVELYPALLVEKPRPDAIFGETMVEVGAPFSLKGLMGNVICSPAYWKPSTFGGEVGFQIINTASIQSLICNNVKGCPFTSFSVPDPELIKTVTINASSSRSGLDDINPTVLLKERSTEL
Briefly: biochemical. It is filed as cell-based, Sf9.

The species named for data set [6] is Rattus norvegicus. The data set can be described thus: Analgesic activity against Freund's adjuvant-induced pain in rat model of acute inflammatory pain assessed as reversal of adjuvant hypersensitivity. It is filed as functional.
The subject of data set [7] is Rattus norvegicus. The data set can be described thus: Antihyperalgesic activity against chronic constriction nerve injury-induced hyperalgesia in rat assessed as reversal of decrease in the paw withdrawal threshold at 5 mg/kg, po bid for 10 days measured on day 10 postdose. Also on record: dose 5 mg/kg. It counts as functional, organism-based.
For data set [8], the system named is Rattus norvegicus. Briefly: Antihyperalgesic activity against chronic constriction nerve injury-induced hyperalgesia in rat assessed as reversal of decrease in the paw withdrawal threshold at 5 mg/kg, po bid for 10 days measured on day 7 postdose. It counts as functional, organism-based. Also on record: dose 5 mg/kg.
The nature of data set [9]: Terminal half life in rat at 1 mg/kg/hr, iv. It is filed as ADME, organism-based. Also on record: route intravenous. The conditions noted are these: in vivo, read-out: beta t1/2 (converted).
The target in data set [10] is T1, Prostaglandin G/H synthase 2. It is filed as tissue-based, Blood.
Description: Inhibition of COX2 in human whole blood assessed as inhibition of lipopolysaccharide-stimulated PGE2 production after 24 hrs by enzyme immunoassay
Data set [11] deals with T2, Prostaglandin G/H synthase 1 (Homo sapiens, UniProt P23219). Briefly: biochemical. It counts as cell-based, COS.
T2 sequence (P23219 whole entry): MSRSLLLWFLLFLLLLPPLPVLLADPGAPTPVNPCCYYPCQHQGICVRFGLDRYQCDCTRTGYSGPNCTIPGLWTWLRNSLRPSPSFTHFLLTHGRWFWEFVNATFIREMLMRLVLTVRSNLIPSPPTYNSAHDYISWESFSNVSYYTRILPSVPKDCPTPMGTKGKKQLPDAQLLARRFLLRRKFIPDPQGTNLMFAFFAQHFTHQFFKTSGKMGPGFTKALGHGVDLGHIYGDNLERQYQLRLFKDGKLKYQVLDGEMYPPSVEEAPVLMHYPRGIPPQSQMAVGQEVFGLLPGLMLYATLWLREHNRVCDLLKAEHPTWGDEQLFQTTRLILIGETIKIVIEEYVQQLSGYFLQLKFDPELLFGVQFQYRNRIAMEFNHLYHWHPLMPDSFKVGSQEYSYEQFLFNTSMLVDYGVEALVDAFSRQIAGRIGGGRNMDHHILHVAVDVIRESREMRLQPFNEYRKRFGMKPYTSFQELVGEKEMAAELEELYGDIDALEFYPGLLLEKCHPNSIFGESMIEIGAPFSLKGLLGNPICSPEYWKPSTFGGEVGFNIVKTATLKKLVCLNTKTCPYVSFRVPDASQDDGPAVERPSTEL
A short description of data set [12]: Oral bioavailability in rat at 5 mg/kg. It counts as ADME, organism-based. To be noted: in vivo.
Data set [13] can be described thus: Selectivity ratio of IC50 for human COX1 to IC50 for human COX2 expressed in baculovirus-infected SF9 cells.
The test system of the next data set is COS. Briefly: Selectivity ratio of IC50 for human COX1 to IC50 for human COX2 expressed in african green monkey COS cells. It is filed as cell-based.
The target of data set [14] is T1, Prostaglandin G/H synthase 2. It counts as cell-based, COS.
The next data set is filed under the species Homo sapiens. Briefly: Selectivity ratio of IC50 for COX1 to IC50 for COX2 in human whole blood. It counts as tissue-based.
Data set [15] concerns the target T2, Prostaglandin G/H synthase 1. It is filed as tissue-based, Blood.
For data set [16] the target is unchanged. Briefly: biochemical. It counts as cell-based, Sf9.

Activity calls are given as the source filed them.

Description for in vivo: Ratio of drug level in brain to blood in rat

Broadly, the Kp is tissue or fluid exposure divided by exposure in the circulation. In general, clearance refers to a measure of how efficiently the substance is removed, as volume per time. One may read the IC50 as the point on the concentration scale where inhibition reaches its midpoint. A word on the ED50: it is the midpoint of the dose-response relation. `CCCCOc1nc(-c2ccc(S(C)(=O)=O)cc2)cc(C(F)(F)F)n1`: in data set [1], the bioavailability was 84%. This molecule displayed a Kp in “in vivo” of 3.2. In addition, the outcome with Rattus norvegicus [2], in the data set with Rattus norvegicus [7] and in the data set on Rattus norvegicus [8] was Active. Further, the Vd in data set [3] came to 5.7 L/kg. In addition, the clearance in [4] was 24 mL/min/kg. Besides, the results for the 50% inhibitory concentration (IC50) in data set [5] and in data set [10] were 21.5 nM and 158 nM, respectively. Besides, the ED50 in the data set listed under Rattus norvegicus [6] was found to be 2.1 mg/kg. Moreover, in data set [9], the half-life is 4.2 h.

Take `CC(C)CNc1nc(-c2ccc(S(C)(=O)=O)cc2)cc(C(F)(F)F)n1`: the IC50 in [11] is greater than 66200 nM; in [5] it was 12 nM; in data set [14], 2 nM; in [15] it was 62000 nM; in [16] it was greater than 100000 nM; in data set [10], 206 nM. Besides, the bioavailability in data set [12] was found to be 107%. In addition, the Ratio IC50 in data set [13] is greater than 8330; in the data set on COS, greater than 33100; in the data set filed under Homo sapiens it was 301. In addition, the Vd in data set [3] is 6 L/kg. The same molecule came in with a clearance in data set [4] of 10 mL/min/kg. Further, the median effective dose (ED50) in the data set filed under Rattus norvegicus [6] amounted to 0.5 mg/kg. Also, the half-life in data set [9] was 9 h.

Values taken from ChEMBL document CHEMBL1153635, “Identification of [4-[4-(methylsulfonyl)phenyl]-6-(trifluoromethyl)-2-pyrimidinyl] amines and ethers as potent and selective cyclooxygenase-2 inhibitors” (Bioorg Med Chem Lett, 2009).
